Measurements reported in article PMC5824708 (EJNMMI Radiopharmacy and Chemistry, 2018).

How the values were obtained:
[1] = tested on: dipeptidyl peptidase IV (DPP4); conditions: degradation by DPP4; ref Pauly et al. [1999]; cited from earlier work
From the text: The glucagon-like peptide type 1 receptor (GLP-1R) is overexpressed in virtually all benign insulinoma with high incidence and density and is considered a valuable target for the efficient visualisation by radiotracers (Reubi and Waser [2003]; Wild et al. [2011]; Wild et al. [2008]; Korner et al. [2012]). The natural ligand released from ileal L-cells, glucagon-like peptide 1 (GLP-1) stimulates the insulin secretion in β-cells by binding to the GLP-1R.

[2] = tested on: CHL-GLP-1 tumor-bearing mouse; parameters: species or system mice; conditions: in vivo
Protocol: Animal studies complied with Swiss laws on animal protection and husbandry and were approved by the Veterinary office of the Canton Zurich. After an acclimatization period, tumor xenografts were produced in 6-week old female CD1 nu/nu mice by subcutaneous injection in both shoulder regions of CHL-GLP-1 receptor positive cells (8 × 10^6 cells/mouse in PBS (100 μL, pH 7.4)) under 2%–3% isoflurane anaesthesia. Ex vivo biodistribution experiments were conducted three weeks after the inoculation. PET imaging experiments were performed five weeks after the inoculation. Two tumor bearing mice were injected with ^18F-2 (13.0 MBq in 80 and 100 μL PBS containing ≤ 5% ethanol, 1.3 and 1.9 nmol) via lateral tail vein. Anaesthesia was induced with 5% isoflurane (Abbott) in O2/air 5 min before PET/CT acquisition. Depth of anaesthesia and temperature were controlled as described by Honer et al. (Honer et al. [2004]). PET/CT scans were performed under 2–3% isoflurane anaesthesia with a GE VISTA eXplore PET/CT tomograph. […] Standardized uptake values (SUV) were calculated as a ratio of tissue radioactivity concentration (kBq/cm^3) and injected activity dose per gram body weight (kBq/g) at the scan start. Percentage injected dose per gram of tissue (%ID/g) was calculated using SUV values: SUV / body weight [g] × 100% = %ID/g.

[3] = tested on: nude mice bearing CHL-GLP-1 receptor positive tumor xenografts; conditions: mouse, in vivo
Protocol: Animal studies complied with Swiss laws on animal protection and husbandry and were approved by the Veterinary office of the Canton Zurich. After an acclimatization period, tumor xenografts were produced in 6-week old female CD1 nu/nu mice by subcutaneous injection in both shoulder regions of CHL-GLP-1 receptor positive cells (8 × 10^6 cells/mouse in PBS (100 μL, pH 7.4)) under 2%–3% isoflurane anaesthesia. Ex vivo biodistribution experiments were conducted three weeks after the inoculation. PET imaging experiments were performed five weeks after the inoculation.
Tumor-bearing mice (n = 12) were injected intravenously with ^18F-2 (200 kBq in 100 μL PBS, 1.3 pmol, 5.9 ng). The animals were sacrificed at 30 min, 1 h and 2 h post injection (n = 4 for each time point). To determine specific binding an additional group of tumor-bearing mice (n = 4) received nonradioactive precursor 1 (100 μg in 100 μL PBS, 22 nmol) co-injected with ^18F-2 (266 kBq in 100 μL PBS, 1.7 pmol, 7.8 ng) and were sacrificed 1 h post injection. Organs and tissues of interest were collected and weighed, and the amount of radioactivity was determined in a γ-counter (1480 Wizard, PerkinElmer) to calculate percentage uptake (% injected dose per gram of tissue). Statistical significance was calculated using Student t-test (two populations, unpaired). P values of less than 0.05 were considered statistically significant.

Tumor to background ratio [2] | tumor to blood ratio [3] | Substance | metabolic half-life [1]
 |  | GLP-1: natural ligand of GLP-1R released from ileal L-cells | less than 2 min
~ 3 | 4 ± 2 | His-Gly-Glu-Gly-Thr-Phe-Thr-Ser-Asp-Leu-Ser-Lys-Gln-Nle-Glu-Glu-Glu-Ala-Val-Arg-Leu-Phe-Ile-Glu-Trp-Leu-Lys-Asn-Gly-Gly-Pro-Ser-Ser-Pro-Ala-Pro-Pro-Pro-Ser-Lys-(N ^6 –2-(4-(di-tert-butylfluorosilyl)phenyl)acetyl)-NH 2 [^18F-2] | 
